In the first assay the test system is GUMC-403. The assay can be described thus: viability at highest tested concentration (max response) relative to DMSO (% of DMSO control); higher = less cytotoxic. The settings on record: library / dose series: MIPE library, 11-point 1:3 dilution; top concentration 23 µM; 48 h. In short, it runs like this:
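This value is viability at the highest tested concentration relative to vehicle control. GUMC-403 papilloma cells from a patient, grown by conditional reprogramming, were plated at 700/well in 1536-well plates and given 23 nL of compound by pin tool for 48 h. CellTiter-Glo luminescence on a ViewLux was normalised with vehicle wells at 100% and empty wells at 0%.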
In the case of `CN1CCCN(CC1)C2=CC=C3C(=O)\C(=C/4SC5=C(C=CC=C5)N4C3=N2)C(=O)NCC6=CN=C(C)C=N6`, the viability worked out at 101.

With `Cn1cc(C[C@@H](N)C(=O)O)c2ccccc21`, the viability was 111.

Turning to `Cn1c(CNc2ccc(C(=N)N)cc2)nc2cc(C(=O)N(CCC(=O)O)c3ccccn3)ccc21`, the viability was 134.

Staying with this assay, now noted: library / dose series: MIPE library, 11-point 1:3 dilution; top concentration 46.1 µM; 48 h.
`CC1(C)CNc2cc(NC(=O)c3cccnc3NCc3ccncc3)ccc21`: the viability is 117.

`C[C@H]1C[C@H]2[C@@H]3CCC4=CC(=O)C=C[C@]4(C)[C@@]3(F)[C@@H](O)C[C@]2(C)[C@@]1(O)C(=O)CO` yielded a viability of 142.

In turn, `NC(=O)c1ncn([C@@H]2O[C@H](CO)[C@@H](O)[C@H]2O)n1` yielded a viability of 99.6.

On to `CC(=O)NC[C@H]1CN(c2ccc(N3CCOCC3)c(F)c2)C(=O)O1`, for which the viability was determined as 120.

`COc1cccc2c1[C@]13CCN(CC4CC4)[C@H](C2)[C@]1(OC)CCC(=O)C3` had a viability of 107.

For `C=C[C@H]1CN2CCC1C[C@H]2[C@H](O)c1ccnc2ccccc12` (some centres undefined), the viability amounted to 101.

In turn, `COc1cccc([C@@H](C)NCCCc2ccccc2Cl)c1` yielded a viability of 105.

In turn, `Oc1nc(-c2ccc(C(F)(F)F)cc2)nc2c1CSCC2` displayed a viability of 86.4.

Regarding `NCC1CCC(C(=O)O)CC1` (centres undefined), the viability is 115.

The molecule `CC(C)(O)CCc1ccc(OCc2cc(-c3cccc(OC(F)F)c3)c3ncccc3c2)cc1` yielded a viability of 143.

Consider `C[S+](=O)([O-])Nc1ccc([N+](=O)[O-])cc1Oc1ccccc1`, for which the viability stood at 113.

For `CC[C@]1(O)C[C@H]2CN(CCC3=C([NH]C4=C3C=CC=C4)[C@@](C2)(C(=O)OC)C5=CC6=C(C=C5OC)N(C=O)[C@H]7[C@](O)([C@H](OC(C)=O)[C@]8(CC)\C=C/C[N@@]9CC[C@]67[C@H]89)C(=O)OC)C1`, the viability turned out to be 105.

`CCCCCCOC(=O)/N=C(/N)c1ccc(NCc2nc3cc(C(=O)N(CCC(=O)OCC)c4ccccn4)ccc3n2C)cc1` registered a viability of 115.

In the case of `FC1=CC=C(CN2\C=C/C=C(/C(=O)N[C@@H](COC3=CC4=C(NC(=O)N4)C=C3)C5=CC=CC=C5)C2=O)C=C1F`, the viability came out at 103.

For the molecule `COc1cc2nccc(Oc3ccc(NC(=O)Nc4ccc(F)cc4F)c(F)c3)c2cc1OC`, the viability came to 91.3.

In turn, `CCCNCC(O)COc1ccccc1C(=O)CCc1ccccc1` (centres undefined) displayed a viability of 90.5.

As to `C[C@H](CCC(=O)O)[C@H]1CC[C@H]2[C@@H]3[C@H](O)C[C@@H]4C[C@H](O)CC[C@]4(C)[C@H]3CC[C@]12C`, the viability came to 128.

In the case of `COc1cc2c(Nc3ccc(Br)cc3F)ncnc2cc1OCC1CCN(C)CC1`, the viability came out at 52.2.

On to `CN(C)C(=O)C(CCN1CCC(O)(c2ccc(Cl)cc2)CC1)(c1ccccc1)c1ccccc1`, for which the viability was found to be 103.

Molecule `C[N]1C=C(C2=C1C=CC=C2)\C3=C(\C(=O)NC3=O)C4=C5CC(CN)CC[N]5C6=C4C=CC=C6` (centres undefined) had a viability of 42.9.

As for `CCc1ccc(CCOc2ccc(CC3SC(=O)NC3=O)cc2)nc1` (centres undefined), the viability was 103.

On to `COc1c(C)c2c(c(O)c1C/C=C(\C)CCC(=O)O)C(=O)OC2`, for which the viability is 106.

Molecule `CCC1(c2ccccc2)C(=O)NCNC1=O` returned a viability of 105.

The molecule `Cc1cccc(-c2[nH]c(C(C)(C)C)nc2-c2ccc3c(c2)OCO3)n1` showed a viability of 118.

For the molecule `CC1(C)C(=O)N(CCN2CCC(C(=O)c3ccc(F)cc3)CC2)c2ccccc21`, the viability is 71.3.

On to `Nc1ccccc1NC(=O)c1ccc(CNC(=O)OCc2cccnc2)cc1`, for which the viability worked out at 110.

Turning to `c1ccc(-c2nn3c(c2-c2ccnc4cc(OCCN5CCOCC5)ccc24)CCC3)nc1`, the viability was determined as 148.

Regarding `CN1/C=C(\N=C(NC2=CC=C(C=C2)C(=O)N3CCOCC3)/C1=O)/C4=C(C)C(=CC=C4)NC(=O)C5=CC=C(C=C5)C(C)(C)C`, the viability worked out at 117.

`CC(C)(C)[C@]1(O)C[C@@H]2OC(=O)C[C@@]23C(=O)O[C@@H]2OC(=O)[C@H](O)C213` (some centres undefined): the viability was 99.4.

With `CN1CCN(Cc2ccc(NC(=O)Nc3ccc(Oc4cc(NC(=O)C5CC5)ncn4)cc3)cc2C(F)(F)F)CC1`, the viability amounted to 52.7.

`C[C@]12CCC\3=C\4CCC(=O)\C=C4CC[C@H]3[C@@H]1CC[C@@]2(O)CC#N`: the viability came to 122.

Take `CCN(CC)CCCCNc1ncc2cc(-c3cc(OC)cc(OC)c3)c(NC(=O)NC(C)(C)C)nc2n1`: the viability was found to be 128.

In turn, `CCCC(C)(COC(N)=O)COC(=O)NC(C)C` (centres undefined) had a viability of 117.

The assay is the same for the next values; noted with them: library / dose series: MIPE library, 11-point 1:3 dilution; top concentration 92.2 µM; 48 h.
In the case of `COc1cc(/C=C/C(=O)CC(=O)/C=C/c2ccc(O)c(OC)c2)ccc1O`, the viability worked out at 94.4.

Another assay deals with GUMC-403. The assay can be described thus: AC50 for reduction of cell viability; higher = less potent. To be noted: library / dose series: NPC library, 8-point 1:5 dilution; 48 h.
`C#Cc1cccc(Nc2ncnc3cc(OCCOC)c(OCCOC)cc23)c1`: the “AC50 for reduction of cell viability” value is 0.106 µM.

On to `COc1cccc2c1C(=O)c1c(O)c3c(c(O)c1C2=O)C[C@@](O)(C(=O)CO)C[C@@H]3O[C@H]1C[C@H](N)[C@H](O)[C@H](C)O1.Cl`, for which the “AC50 for reduction of cell viability” value worked out at 11.9 µM.

With `CCN(CC)CCNc1ccc(CO)c2sc3ccccc3c(=O)c12`, the “AC50 for reduction of cell viability” value came out at 26.6 µM.

For `CN(C)C(=S)SSC(=S)N(C)C`, the “AC50 for reduction of cell viability” value amounted to 18.8 µM.

Turning to `C[C@@H]1O[C@@H](O[C@@H]2C=C3CC[C@@H]4[C@H](CC[C@]5(C)[C@@H](c6ccc(=O)oc6)CC[C@]45O)[C@@]3(C)CC2)[C@H](O)[C@H](O)[C@H]1O`, the “AC50 for reduction of cell viability” value came out at 0.0119 µM.

On to `CC(C)C[C@H](NC(=O)[C@H](CCc1ccccc1)NC(=O)CN1CCOCC1)C(=O)N[C@@H](Cc1ccccc1)C(=O)N[C@@H](CC(C)C)C(=O)[C@@]1(C)CO1`, for which the “AC50 for reduction of cell viability” value amounted to 1.19 µM.

Regarding `C[C@@]12C(=O)OC(=O)[C@]1(C)C1CCC2O1`, the “AC50 for reduction of cell viability” value came out at 3.35 µM.

`O=C(CCCN1CC=C(n2c(=O)[nH]c3ccccc32)CC1)c1ccc(F)cc1`: the “AC50 for reduction of cell viability” value turned out to be 18.8 µM.

For the molecule `CC[n+]1c(-c2ccccc2)c2cc(N)ccc2c2ccc(N)cc21.[Br-]`, the “AC50 for reduction of cell viability” value turned out to be 9.44 µM.

As to `CC[C@H](O)C(C[C@H](C)N(C)C)(c1ccccc1)c1ccccc1.Cl`, the “AC50 for reduction of cell viability” value stood at 44.1 µM.

As for `COc1cccc2c1C(=O)c1c(O)c3c(c(O)c1C2=O)C[C@@](O)(C(C)=O)C[C@@H]3O[C@H]1C[C@H](N)[C@H](O)[C@H](C)O1`, the “AC50 for reduction of cell viability” value amounted to 2.66 µM.

With `COc1cc2ncnc(Nc3ccc(F)c(Cl)c3)c2cc1OCCCN1CCOCC1`, the “AC50 for reduction of cell viability” value came out at 1.19 µM.

As for `Cc1cc(OCCOCC[N+](C)(C)Cc2ccccc2)ccc1C(C)(C)CC(C)(C)C.[Cl-]`, the “AC50 for reduction of cell viability” value amounted to 23.7 µM.

`[Cl-].C/[N+](C)=C1\C=C\C(C=C1)=C(/c2ccc(cc2)N(C)C)c3ccc(cc3)N(C)C`: the “AC50 for reduction of cell viability” value came out at 13.3 µM.

With `CCOC(=O)[C@@](C)(N)Cc1ccc(O)c(O)c1.Cl`, the “AC50 for reduction of cell viability” value was 6.68 µM.

For `Oc1c(Cl)cc(Cl)c(Cl)c1Cc1c(O)c(Cl)cc(Cl)c1Cl`, the “AC50 for reduction of cell viability” value came to 16.8 µM.

For the molecule `C[C@@H]1O[C@@H](O[C@H]2C[C@@H](O)[C@]3(CO)[C@H]4[C@H](O)C[C@]5(C)[C@@H](C6=CC(=O)OC6)CC[C@]5(O)[C@@H]4CC[C@]3(O)C2)[C@H](O)[C@H](O)[C@H]1O`, the “AC50 for reduction of cell viability” value turned out to be 0.075 µM.

(Values after the supplement of paper PMC6723410.)
